Some test systems named below: A498 renal; ACHN renal; COLO 205 colon; DU-145 prostate; EKVX NSCLC; HCT-15 colon; HT29 colon; KM12 colon; M14 melanoma; MCF7 breast; MDA-MB-435; NCI-H522 lung; OVCAR-4 ovarian; RPMI-8226 leukemia; RXF 393 renal; SF-268 CNS; SK-MEL-5 melanoma; SNB-75 CNS; SR leukemia; SW-620 colon.
Experiment in all cases: DTP human tumour cell line panel, 48 h

SMILES strings stand for the structures.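 Growth conditions: 96-well plates. Treatment: test compound, 48 hours, 5 concentrations. Analysis: linear interpolation between bracketing concentrations; unreached endpoints set to highest concentration. TGI: total growth inhibition.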

As a reminder, the TGI is the concentration giving total growth inhibition. Low values mean greater sensitivity of the cells, high ones lower sensitivity of the cells. Regarding `CN(C)CCCCN1c2ccccc2Sc2ccc(C(=O)c3ccccc3)cc21`, the total growth inhibition concentration (TGI) was 32.5 µM with A498 renal; 7.19 µM in the assay on ACHN renal; 3.13 µM in the assay on COLO 205 colon; 10.7 µM with DU-145 prostate; 15.9 µM with EKVX NSCLC; 9.27 µM with HCT-15 colon. Besides, the TGI amounted to 3.88 µM with HT29 colon; 4.99 µM with KM12 colon; 3.25 µM with M14 melanoma; 3.05 µM with MCF7 breast; 3.51 µM in the assay on MDA-MB-435; 6.84 µM in the assay on NCI-H522 lung. Besides, the TGI was 10.8 µM with OVCAR-4 ovarian; more than 100 µM with RPMI-8226 leukemia; 4.17 µM in the assay on RXF 393 renal; 17.7 µM in the assay with SF-268 CNS; 3.42 µM in the assay on SK-MEL-5 melanoma; 6.92 µM with SNB-75 CNS. For the same molecule, the TGI in the assay with SR leukemia was more than 100 µM; in the assay with SW-620 colon it was 2.91 µM.

As for `CC(O)C1(CNc2cc(Cl)nc(N)n2)CC(CCc2ccccc2)C1` (stereo not drawn), the total growth inhibition concentration (TGI) in the assay on A498 renal was 27.3 µM; with ACHN renal it was 22.2 µM; with COLO 205 colon, 28.8 µM; with DU-145 prostate it was 35.9 µM; with EKVX NSCLC, 37.3 µM; with HCT-15 colon it was 24 µM. For the same molecule, the TGI in the assay on HT29 colon came out at 25.7 µM; with KM12 colon, 27.7 µM; in the assay on M14 melanoma, 33.4 µM; in the assay with MCF7 breast, 0.992 µM; in the assay on MDA-MB-435 it was 26.6 µM; in the assay with NCI-H522 lung, 21.8 µM. Also, the concentration for total growth inhibition (TGI) in the assay with OVCAR-4 ovarian turned out to be 23.3 µM; in the assay on RPMI-8226 leukemia, 43.1 µM; in the assay with RXF 393 renal, 30.8 µM; with SF-268 CNS, 29.4 µM; in the assay with SK-MEL-5 melanoma it was 19.7 µM; in the assay with SNB-75 CNS, 40 µM. Besides, the TGI in the assay with SR leukemia came to 35.8 µM; in the assay with SW-620 colon, 29.3 µM.

`[O-][n+]1onc2c1/C(=N/O)CCC2`: the TGI in the assay with A498 renal, with ACHN renal, with COLO 205 colon, in the assay on DU-145 prostate, with EKVX NSCLC and in the assay with HCT-15 colon was more than 100 µM in each case. The TGI with HT29 colon, in the assay with KM12 colon, in the assay with M14 melanoma, in the assay on MCF7 breast, in the assay on MDA-MB-435 and in the assay with NCI-H522 lung was more than 100 µM each time. Further, the TGI with OVCAR-4 ovarian, in the assay on RPMI-8226 leukemia, in the assay on RXF 393 renal, with SF-268 CNS, in the assay with SK-MEL-5 melanoma and in the assay with SNB-75 CNS was more than 100 µM throughout. The TGI with SR leukemia and with SW-620 colon was more than 100 µM in each case.

Take `Cc1ccc(NC2=N/C(=C/c3ccccc3)C(Cl)=N2)cc1`: the TGI in the assay on A498 renal, in the assay with ACHN renal, in the assay with COLO 205 colon, with DU-145 prostate, in the assay on EKVX NSCLC and with HCT-15 colon was more than 100 µM in each case. Besides, the TGI in the assay on HT29 colon, with KM12 colon, with M14 melanoma, in the assay on MCF7 breast, with MDA-MB-435 and in the assay on NCI-H522 lung was more than 100 µM throughout. For the same molecule, the TGI with OVCAR-4 ovarian, in the assay on RPMI-8226 leukemia, with RXF 393 renal, in the assay with SF-268 CNS, in the assay with SK-MEL-5 melanoma and in the assay on SNB-75 CNS was more than 100 µM throughout. The TGI with SR leukemia is 98.2 µM; with SW-620 colon, more than 100 µM.

In the case of `CC(=N\N=C\c1ccccn1)/C(C)=N/N=C(C)/C(C)=N/N=C/c1ccccn1`, the TGI with A498 renal, with ACHN renal, in the assay with COLO 205 colon, in the assay with DU-145 prostate, in the assay with EKVX NSCLC and with HCT-15 colon was more than 100 µM in each case. Moreover, the TGI in the assay on HT29 colon, in the assay on KM12 colon, with M14 melanoma, in the assay with MCF7 breast, in the assay with MDA-MB-435 and with NCI-H522 lung was more than 100 µM throughout. The TGI in the assay on OVCAR-4 ovarian, with RPMI-8226 leukemia, with RXF 393 renal, with SF-268 CNS, with SK-MEL-5 melanoma and with SNB-75 CNS was more than 100 µM in each case. The TGI in the assay with SR leukemia and in the assay with SW-620 colon was more than 100 µM in each case.

As for `O=[N+]([O-])c1cc(Cl)cc2cc(Br)cnc12`, the TGI in the assay on A498 renal, in the assay with ACHN renal, in the assay on COLO 205 colon, in the assay with DU-145 prostate, in the assay with EKVX NSCLC and in the assay with HCT-15 colon was more than 31.6 µM throughout. The TGI with HT29 colon, in the assay with M14 melanoma, with MCF7 breast, with MDA-MB-435, in the assay with NCI-H522 lung and in the assay with OVCAR-4 ovarian was more than 31.6 µM throughout. The TGI with RPMI-8226 leukemia, in the assay on RXF 393 renal, in the assay on SK-MEL-5 melanoma, in the assay on SNB-75 CNS, in the assay with SR leukemia and in the assay on SW-620 colon was more than 31.6 µM throughout.

On to `C/C(=N\NC(=S)N(C)CCN(C)C(=S)N/N=C(\C)c1ccccn1)c1ccccn1`, for which the TGI in the assay with A498 renal was 3 µM; with ACHN renal, 11.4 µM; in the assay on COLO 205 colon, 0.912 µM; in the assay with DU-145 prostate it was 13.1 µM; with EKVX NSCLC it was 10.4 µM; in the assay with HCT-15 colon, 18.5 µM. The total growth inhibition concentration (TGI) in the assay with HT29 colon is 24.4 µM; with KM12 colon, 14.3 µM; with M14 melanoma, more than 100 µM; in the assay with MCF7 breast, 18.3 µM; in the assay with MDA-MB-435, more than 100 µM; in the assay on NCI-H522 lung it was 18.8 µM. The TGI was 14.8 µM with OVCAR-4 ovarian; 23.7 µM in the assay on RPMI-8226 leukemia; 3.46 µM in the assay on RXF 393 renal; 12 µM with SF-268 CNS; 2.16 µM in the assay on SK-MEL-5 melanoma; 7.59 µM with SNB-75 CNS. Also, the values for the TGI with SR leukemia and in the assay with SW-620 colon were 3.71 µM and 22.9 µM, respectively.

These data come from PubChem BioAssay (NCI).
